# Legend:
# AsPc-1 = assay: Cytostatic activity, EZ4U test, pancreas carcinoma cell line AsPc-1; type: cell-based; details: three days
# Procedure: (§1) Cell lines of a colon carcinoma and a pancreas carcinoma, such as Capan-1, DLD-1, HT 29, HCT-8, MLA-PA-CA2, PANCI, BXPC-3, ASPC-1, and HT-29, were examined. The tested cancer cell lines were stored in liquid nitrogen. After defrosting, the cancer cells were cultivated in culture flasks with RPMI-1640+glutamine medium (Gibco® No. 5240025) at 37° C./5% CO2 atmosphere for up to 14 days so that a monolayer of cells was able to form. Thereupon, the cells were harvested with trypsin+EDTA (Gibco® No. 15400-054) and washed twice with an RPMI-medium.
# (§2) Apart from poly-[2-(2-ethoxyethoxyethyl)guanidinium hydrochloride], the chemotherapeutic agents cisplatin, epirubicin, mitomycin C and 5-fluorouracil were tested by way of comparison. Therefor, the compounds were at first dissolved according to the respective instructions of the manufacturer and were then stored as a stock solution in aliquots of 1 ml each (concentration of drug substance: 1000 μg/ml) in liquid nitrogen at −180° C. The dissolved substances were used on the very same day.
# (§3) In order to determine the cytotoxic activity of the substances, the cancer cells were transferred from the culture flasks with an RPMI-washed suspension at a concentration of 20,000 cells in 200 μl onto microtiter plates. In the presence of varying concentrations of the test substances, the cancer cells were subsequently incubated for three days at a temperature of 37° C. and in an atmosphere of 5% CO2. For the poly-[2-(2-ethoxyethoxyethyl)guanidinium hydrochloride], concentrations of 0.12 to 500 μg/ml (factor 2 dilutions) were used in all test arrangements. After three days of incubation, the evaluation was carried out by means of the nonradioactive cell proliferation and cytotoxicity test EZ4U (Biomedica No. BI-5000 10×96 determinations). After three hours of incubation with EZ4U, the evaluation was carried out photometrically in percent at a wavelength of 49/630 nm in a slidephotometer (extinction of the test sample divided by extinction of the control-sample blank value).
# Capan-1 = assay: Cytostatic activity, EZ4U test, pancreas carcinoma cell line Capan-1; type: cell-based; details: three days
# Procedure: as §1, §2, §3
# BxPc-3 = assay: Cytostatic activity, EZ4U test, pancreas carcinoma cell line BxPc-3; type: cell-based; details: three days
# Procedure: as §1, §2, §3
# Panc-1 = assay: Cytostatic activity, EZ4U test, pancreas carcinoma cell line Panc-1; type: cell-based; details: three days
# Procedure: as §1, §2, §3
# [1] = type: in vivo; details: intravenous or intraperitoneal, up to 15 mg/kg body weight
# Procedure: After an (intravenous or intraperitoneal) systemic administration of poly-[2-(2-ethoxyethoxyethyl)guanidinium hydrochloride] in amounts of up to 15 mg/kg body weight, serum concentrations of up to 100 μg/ml are measured in the rat's blood after two hours, whereby, at the same time, the tolerance is good. Therefore, poly-[2-(2-ethoxyethoxyethyl)guanidinium hydrochloride] can be used as a cytostatic drug.
# DLD-1 = assay: Cytostatic activity, EZ4U test, colon carcinoma cell line DLD-1; type: cell-based; details: three days
# Procedure: as §1, §2, §3
# HCT-8 = assay: Cytostatic activity, EZ4U test, colon carcinoma cell line HCT-8; type: cell-based; details: three days
# Procedure: as §1, §2, §3
# Colon 320DM = assay: Cytostatic activity, EZ4U test, colon carcinoma cell line Colon 320DM; type: cell-based; details: three days
# Procedure: as §1, §2, §3
# Colon 205 = assay: Cytostatic activity, EZ4U test, colon carcinoma cell line Colon 205; type: cell-based; details: three days
# Procedure: as §1, §2, §3
# HCT-15 = assay: Cytostatic activity, EZ4U test, colon carcinoma cell line HCT-15; type: cell-based; details: three days
# Procedure: as §1, §2, §3
# cancer cells = assay: Cytostatic activity in cancer cell lines (colon and pancreas carcinoma), summary; type: cell-based; details: colon carcinoma (HT-29, HCT-8, DLD-1) and pancreas carcinoma (ASPC-1, BXPC-3, CAPAN-1, PANC-1) cell lines
# Procedure: as §1
# as §3, with “After three hours of incubation with EZ4U, the evaluation was carried out photometrically in percent at a wavelength of 49/630 nm in a slidephotometer (extinction of the test sample divided by extinction of the control-sample blank value).” left out
# [2] = system: lymphocytes of healthy test persons; assay: Vitality of lymphocytes, trypan blue; type: cell-based, human; details: for Vitality of lymphocytes in %: 24 hours
# Procedure: In addition, lymphocytes of healthy test persons were examined. In doing so, a total amount of 100 ml blood was drawn into EDTA test tubes. The lymphocytes were isolated from the full blood by means of a Mono-Poly Resolving Medium/Ficol-Hypaque gradient, were washed three times with an HBSS buffer and, prepared in this manner, they were added to the test stock.
# as §2
# The vitality of the lymphocytes was determined in a suspension of 1.2×10^7/ml at varying concentrations of the test substances. In the presence of the test substances, the cell suspensions were incubated for 24 hours at 37° C. and in an atmosphere of 5% CO2 and were then dyed with trypan blue. After dyeing, the lymphocytes were applied onto the counting chamber and their vitality was evaluated in percent.
# HAT-29 = assay: Cytostatic activity, EZ4U cell proliferation and cytotoxicity test, colon carcinoma cell line HAT-29; type: cell-based; details: three days
# Procedure: as §1, §2, §3
# MIA PaCa-2 = assay: Cytostatic activity, EZ4U test, pancreas carcinoma cell line MIA PaCa-2; type: cell-based; details: three days
# Procedure: as §1, §2, §3
compound,measurement,setting,value
O=c1[nH]cc(F)c(=O)[nH]1 [5-Fluorouracil],vitality in %,AsPc-1; 0.6 μg/ml,92%
same,vitality in %,AsPc-1; 6 μg/ml,88%
same,vitality in %,AsPc-1; 60 μg/ml,71%
same,vitality in %,Capan-1; 0.6 μg/ml,46%
same,vitality in %,Capan-1; 6 μg/ml,38%
same,vitality in %,Capan-1; 60 μg/ml,23%
same,vitality in %,BxPc-3; 0.6 μg/ml,86%
same,vitality in %,BxPc-3; 6 μg/ml,79%
same,vitality in %,BxPc-3; 60 μg/ml,67%
same,vitality in %,Panc-1; 0.6 μg/ml,80%
same,vitality in %,Panc-1; 6 μg/ml,77%
same,vitality in %,Panc-1; 60 μg/ml,62%
N.N.[Cl][Pt][Cl] [Cisplatin],vitality in %,AsPc-1; 0.025 μg/ml,85%
same,vitality in %,AsPc-1; 0.25 μg/ml,89%
same,vitality in %,AsPc-1; 2.5 μg/ml,53%
same,vitality in %,Capan-1; 0.025 μg/ml,94%
same,vitality in %,Capan-1; 0.25 μg/ml,54%
same,vitality in %,Capan-1; 2.5 μg/ml,36%
same,vitality in %,BxPc-3; 0.025 μg/ml,87%
same,vitality in %,BxPc-3; 0.25 μg/ml,65%
same,vitality in %,BxPc-3; 2.5 μg/ml,93%
COc1cccc2c1C(=O)c1c(O)c3c(c(O)c1C2=O)C[C@@](O)(C(=O)CO)C[C@@H]3O[C@H]1C[C@H](N)[C@@H](O)[C@H](C)O1 [Epirubicin],vitality in %,AsPc-1; 0.12 μg/ml,105%
same,vitality in %,AsPc-1; 1.19 μg/ml,59%
same,vitality in %,AsPc-1; 11.9 μg/ml,55%
same,vitality in %,Capan-1; 0.12 μg/ml,50%
same,vitality in %,Capan-1; 1.19 μg/ml,35%
same,vitality in %,Capan-1; 11.9 μg/ml,54%
same,vitality in %,BxPc-3; 0.12 μg/ml,76%
same,vitality in %,BxPc-3; 1.19 μg/ml,55%
same,vitality in %,BxPc-3; 11.9 μg/ml,62%
same,vitality in %,Panc-1; 0.12 μg/ml,111%
same,vitality in %,Panc-1; 1.19 μg/ml,43%
same,vitality in %,Panc-1; 11.9 μg/ml,61%
CO[C@@]12[C@H](COC(N)=O)C3=C(C(=O)C(C)=C(N)C3=O)N1C[C@@H]1N[C@@H]12 [Mitomycin C],vitality in %,AsPc-1; 0.015 μg/ml,98%
same,vitality in %,AsPc-1; 0.15 μg/ml,89%
same,vitality in %,AsPc-1; 1.5 μg/ml,65%
same,vitality in %,Capan-1; 0.015 μg/ml,59%
same,vitality in %,Capan-1; 0.15 μg/ml,30%
same,vitality in %,Capan-1; 1.5 μg/ml,22%
same,vitality in %,BxPc-3; 0.015 μg/ml,100%
same,vitality in %,BxPc-3; 0.15 μg/ml,91%
same,vitality in %,BxPc-3; 1.5 μg/ml,47%
same,vitality in %,Panc-1; 0.015 μg/ml,104%
same,vitality in %,Panc-1; 0.15 μg/ml,103%
same,vitality in %,Panc-1; 1.5 μg/ml,55%
poly-[2-(2-ethoxyethoxyethyl)guanidinium hydrochloride],serum concentrations in the rat's blood,[1]; after two hours,up to 100 μg/ml
same,tolerance,[1]; rat,good
same,vitality in %,DLD-1; 2 μg/ml,103%
same,vitality in %,DLD-1; 4 μg/ml,86%
same,vitality in %,DLD-1; 8 μg/ml,49%
same,vitality in %,DLD-1; 16 μg/ml,26%
same,vitality in %,DLD-1; 32 μg/ml,17%
same,vitality in %,DLD-1; 64 μg/ml,15%
same,vitality in %,AsPc-1; 2 μg/ml,92%
same,vitality in %,AsPc-1; 4 μg/ml,70%
same,vitality in %,AsPc-1; 8 μg/ml,50%
same,vitality in %,AsPc-1; 16 μg/ml,15%
same,vitality in %,AsPc-1; 32 μg/ml,12%
same,vitality in %,AsPc-1; 64 μg/ml,13%
same,vitality in %,Capan-1; 2 μg/ml,115%
same,vitality in %,Capan-1; 4 μg/ml,111%
same,vitality in %,Capan-1; 8 μg/ml,95%
same,vitality in %,Capan-1; 16 μg/ml,114%
same,vitality in %,Capan-1; 32 μg/ml,79%
same,vitality in %,Capan-1; 64 μg/ml,46%
same,vitality in %,HCT-8; 0.125 μg/ml,88%
same,vitality in %,HCT-8; 0.25 μg/ml,70%
same,vitality in %,HCT-8; 0.5 μg/ml,79%
same,vitality in %,HCT-8; 1 μg/ml,85%
same,vitality in %,HCT-8; 2 μg/ml,90%
same,vitality in %,HCT-8; 4 μg/ml,114%
same,vitality in %,HCT-8; 8 μg/ml,91%
same,vitality in %,HCT-8; 16 μg/ml,34%
same,vitality in %,HCT-8; 32 μg/ml,15%
same,vitality in %,HCT-8; 64 μg/ml,11%
same,vitality in %,BxPc-3; 2 μg/ml,63%
same,vitality in %,BxPc-3; 4 μg/ml,74%
same,vitality in %,BxPc-3; 8 μg/ml,44%
same,vitality in %,BxPc-3; 16 μg/ml,18%
same,vitality in %,BxPc-3; 32 μg/ml,11%
same,vitality in %,BxPc-3; 64 μg/ml,9%
same,vitality in %,Panc-1; 2 μg/ml,88%
same,vitality in %,Panc-1; 4 μg/ml,90%
same,vitality in %,Panc-1; 8 μg/ml,55%
same,vitality in %,Panc-1; 16 μg/ml,30%
same,vitality in %,Panc-1; 32 μg/ml,16%
same,vitality in %,Panc-1; 64 μg/ml,11%
same,vitality in %,Colon 320DM; 2 μg/ml,79%
same,vitality in %,Colon 320DM; 4 μg/ml,37%
same,vitality in %,Colon 320DM; 8 μg/ml,26%
same,vitality in %,Colon 320DM; 16 μg/ml,24%
same,vitality in %,Colon 320DM; 32 μg/ml,22%
same,vitality in %,Colon 320DM; 64 μg/ml,21%
same,vitality in %,Colon 205; 2 μg/ml,70%
same,vitality in %,Colon 205; 4 μg/ml,59%
same,vitality in %,Colon 205; 8 μg/ml,27%
same,vitality in %,Colon 205; 16 μg/ml,16%
same,vitality in %,Colon 205; 32 μg/ml,16%
same,vitality in %,Colon 205; 64 μg/ml,15%
same,vitality in %,HCT-15; 2 μg/ml,81%
same,vitality in %,HCT-15; 4 μg/ml,81%
same,vitality in %,HCT-15; 8 μg/ml,69%
same,vitality in %,HCT-15; 16 μg/ml,25%
same,vitality in %,HCT-15; 32 μg/ml,18%
same,vitality in %,HCT-15; 64 μg/ml,16%
same,cytostatic activity,cancer cells,excellent cytostatic activity
same,Vitality of lymphocytes in %,[2]; 12.5 μg/ml,98%
same,Vitality of lymphocytes in %,[2]; 25 μg/ml,100%
same,Vitality of lymphocytes in %,[2]; 50 μg/ml,96%
same,Vitality of lymphocytes in %,[2]; 100 μg/ml,98%
same,Vitality of lymphocytes in %,[2]; 250 μg/ml,30%
same,Vitality of lymphocytes in %,[2]; 500 μg/ml,16%
same,Vitality of lymphocytes in %,[2]; 1000 μg/ml,1%
same,concentrations from which cytostatic activity has been observed,[2]; healthy endogenous cells such as lymphocytes (table 4),≥ 100 µg/mL
same,vitality in %,HAT-29; 0.125 μg/ml,76%
same,vitality in %,HAT-29; 0.25 μg/ml,85%
same,vitality in %,HAT-29; 0.5 μg/ml,98%
same,vitality in %,HAT-29; 1 μg/ml,88%
same,vitality in %,HAT-29; 2 μg/ml,77%
same,vitality in %,HAT-29; 4 μg/ml,76%
same,vitality in %,HAT-29; 8 μg/ml,47%
same,vitality in %,HAT-29; 16 μg/ml,21%
same,vitality in %,HAT-29; 32 μg/ml,13%
same,vitality in %,HAT-29; 64 μg/ml,11%
same,vitality in %,MIA PaCa-2; 2 μg/ml,106%
same,vitality in %,MIA PaCa-2; 4 μg/ml,97%
same,vitality in %,MIA PaCa-2; 8 μg/ml,58%
same,vitality in %,MIA PaCa-2; 16 μg/ml,16%
same,vitality in %,MIA PaCa-2; 32 μg/ml,12%
same,vitality in %,MIA PaCa-2; 64 μg/ml,11%
